Experimental data: ChEMBL document CHEMBL3632595, “Constituents of the seeds of Cassia tora with inhibitory activity on soluble expoxide hydrolease” (Bioorg Med Chem Lett, 2015)

Assays:
[1] = biological target: T1, Bifunctional epoxide hydrolase 2 (Homo sapiens, UniProt P34913); test: Inhibition of sEH (unknown origin) assessed as 6-methoxy-2-naphthaldehyde formation by fluorometry assay using 40 uM cyano-(6-methoxy-naphthalen-2-yl)-methyl ester as substrate
T1 sequence (P34913 whole entry): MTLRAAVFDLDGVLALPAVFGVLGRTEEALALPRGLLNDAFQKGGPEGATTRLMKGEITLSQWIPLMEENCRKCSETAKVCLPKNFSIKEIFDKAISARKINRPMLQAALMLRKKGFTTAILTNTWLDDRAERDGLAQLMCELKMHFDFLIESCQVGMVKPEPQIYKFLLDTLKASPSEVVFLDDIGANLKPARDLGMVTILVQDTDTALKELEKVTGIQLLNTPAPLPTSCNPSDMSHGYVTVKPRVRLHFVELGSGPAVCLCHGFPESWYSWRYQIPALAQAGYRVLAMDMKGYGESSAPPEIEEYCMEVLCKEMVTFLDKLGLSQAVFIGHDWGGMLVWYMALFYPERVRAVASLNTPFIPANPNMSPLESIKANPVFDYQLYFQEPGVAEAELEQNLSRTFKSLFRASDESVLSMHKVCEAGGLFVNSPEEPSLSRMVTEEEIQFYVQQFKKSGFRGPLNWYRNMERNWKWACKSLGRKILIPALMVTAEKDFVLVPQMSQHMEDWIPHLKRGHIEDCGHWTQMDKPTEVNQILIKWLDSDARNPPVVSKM

[2] = biological target: T2, Bifunctional epoxide hydrolase 2 (Homo sapiens) (UniProt P34913); conditions: at 50 µM
T2 sequence (whole entry): T1 sequence (P34913 whole entry)
Description: Inhibition of sEH (unknown origin) assessed as 6-methoxy-2-naphthaldehyde formation at 50 uM by fluorometry assay using 40 uM cyano-(6-methoxy-naphthalen-2-yl)-methyl ester as substrate

[3] = biological target: T1, Bifunctional epoxide hydrolase 2; test: Reversible-uncompetitive inhibition of sEH (unknown origin) by Lineweaver-Burk plot

Compound | IC50 [1] [µM] | inhibition [2] [%] | Ki [3] [µM]
COc1ccc2c(c1O)C(=O)c1c(cc(C)c(O)c1OC)C2=O | 35.7 | 54.2 | 
COc1cc(O[C@@H]2O[C@H](CO[C@@H]3O[C@H](CO)[C@@H](O)[C@H](O)[C@H]3O)[C@@H](O)[C@H](O)[C@H]2O)c2c(O)c3c(=O)cc(C)oc3cc2c1 | 37.5 | 50.9 | 
COc1cc2c(c(OC)c1OC)C(=O)c1c(cc(C)c(O)c1OC)C2=O [CHRYSOOBTUSIN] | 26.3 | 59.8 | 
COc1c(O)cc2c(c1O)C(=O)c1c(cc(C)c(O)c1OC)C2=O |  | 0 | 
COc1cc(O[C@@H]2O[C@H](CO[C@@H]3O[C@H](CO)[C@@H](O)[C@H](O)[C@H]3O)[C@@H](O)[C@H](O)[C@H]2O)c2c(O)c3c(=O)oc(C)cc3cc2c1 | 20 | 67.6 | 
COc1cc(O[C@@H]2O[C@H](CO)[C@@H](O)[C@H](O)[C@H]2O)c2c(O)c3c(=O)cc(C)oc3cc2c1 |  | 38.1 | 
COc1cc(O[C@@H]2O[C@H](CO[C@@H]3O[C@H](CO)[C@@H](O)[C@H](O)[C@H]3O)[C@@H](O)[C@H](O)[C@H]2O)c2c(c1)C(=O)c1cc(C)cc(O)c1C2=O | 40.6 | 51 | 
COc1c(O[C@@H]2O[C@H](CO)[C@@H](O)[C@H](O)[C@H]2O)cc2c(c1O)C(=O)c1c(cc(C)c(O)c1OC)C2=O | 33 | 57.7 | 
COc1cc(O)c2c(c1)C(=O)c1cc(C)cc(O)c1C2=O |  | 27.1 | 
Cc1cc(O)c2c(c1)C(=O)c1cc(O)cc(O)c1C2=O [EMODIN] | 36.4 | 56.4 | 
COc1cc2c(c(O)c1OC)C(=O)c1c(cc(C)c(O)c1OC)C2=O | 26.4 | 55.1 | 
COc1c(O)c(C)cc2c1C(=O)c1c(O)cccc1C2=O |  | 2.6 | 
COc1cc2c(c(OC)c1OC)C(=O)c1c(cc(C)c(O[C@@H]3O[C@H](CO)[C@@H](O)[C@H](O)[C@H]3O)c1OC)C2=O |  | 28.6 | 
COc1cc(O[C@@H]2O[C@H](CO)[C@@H](O)[C@H](O)[C@H]2O)c2c(OC)c(C(C)=O)c(O[C@H]3OC[C@@](O)(CO)[C@@H]3O)cc2c1 | 2.2 | 91.6 | 0.6
Cc1cc(O)c2c(c1)C(=O)c1cccc(O)c1C2=O |  | 38.1 | 
COc1c(O[C@@H]2O[C@H](CO)[C@@H](O)[C@H](O)[C@H]2O)c(C)cc2c1C(=O)c1c(O)cccc1C2=O | 24.3 | 50.6 | 
